Assay results from US6737383B1, “Herbicidal oxadiazolidines” (priority 1999, dated 2004).

What was measured:
[1] = test system: velvetleaf; assay: Test B pre/postemergence velvetleaf; format: in vivo, Abutilon theophrasti
In short: (§1)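 Test chemicals in a non-phytotoxic solvent mixture with surfactant were sprayed preemergence onto planted seeds and postemergence onto plants 2 to 18 cm tall (1- to 4-leaf stage). After twelve to sixteen days in a greenhouse, injury was visually rated against untreated controls from 0 (no effect) to 10 (complete control).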

[2] = test system: duck salad; assay: Test B flood test duck salad; format: in vivo, Heteranthera limosa
In short: (§2)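 Plants were grown to the 2-leaf stage before treatment with test chemical, then held in a greenhouse for twelve to sixteen days. Injury was visually rated against untreated controls on a 0–10 scale, where 0 is no effect and 10 is complete control.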

[3] = test system: purple nutsedge; assay: Test B pre/postemergence purple nutsedge; format: in vivo, Cyperus rotundus
In short: as §1

[4] = test system: bedstraw; assay: Test B pre/postemergence bedstraw; format: in vivo, Galium aparine
In short: as §1

[5] = test system: rape; assay: Test B pre/postemergence rape; format: in vivo, Brassica napus
In short: as §1

[6] = test system: soybean; assay: Test B pre/postemergence soybean; format: in vivo, Glycine max
In short: as §1

[7] = test system: pigweed; assay: Test B pre/postemergence pigweed; format: in vivo, Amaranthus retroflexus
In short: as §1

[8] = test system: sugar beet; assay: Test B pre/postemergence sugar beet; format: in vivo, Beta vulgaris
In short: as §1

[9] = test system: blackgrass; assay: Test B pre/postemergence blackgrass; format: in vivo, Alopecurus myosuroides
In short: as §1

[10] = test system: wild oat; assay: Test B pre/postemergence wild oat; format: in vivo, Avena fatua
In short: as §1

[11] = test system: wheat; assay: Test B pre/postemergence wheat; format: in vivo, Triticum aestivum
In short: as §1

[12] = test system: morningglory; assay: Test B pre/postemergence morningglory; format: in vivo, Ipomoea hederacea
In short: as §1

[13] = test system: rice; assay: Test B flood test rice; format: in vivo, Oryza sativa
In short: as §2

[14] = test system: giant foxtail; assay: Test B pre/postemergence giant foxtail; format: in vivo, Setaria faberii
In short: as §1

[15] = test system: bamyardgrass; assay: Test B flood test barnyardgrass; format: in vivo, Echinochloa crus-galli
In short: as §2

[16] = test system: smallflower flatsedge; assay: Test B flood test smallflower flatsedge; format: in vivo, Cyperus difformis
In short: as §2

[17] = Postemergence, Rate 125 g/ha, scale of 0 to 10 where 0 is no effect and 10 is complete control
[18] = Postemergence, Rate 250 g/ha, scale of 0 to 10, 0 is no effect, 10 is complete control
[19] = Postemergence, Rate 500 g/ha, scale of 0 to 10 where 0 is no effect and 10 is complete control
[20] = Preemergence, Rate 62 g/ha, scale 0 to 10 (0 no effect, 10 complete control)
[21] = Preemergence, Rate 125 g/ha, scale of 0 to 10 where 0 is no effect and 10 is complete control
[22] = Preemergence, Rate 500 g/ha, scale of 0 to 10 where 0 is no effect and 10 is complete control
[23] = Rate 62 g/ha, flood test species, Pre-emergence, visual evaluation after twelve to sixteen days
[24] = Rate 125 g/ha, under heading Pre-emergence, flood test species, visual evaluation after twelve to sixteen days
[25] = Rate 250 g/ha, Pre-emergence (flood test species), scale 0 to 10, 0 is no effect, 10 is complete control
[26] = Rate 500 g/ha, Pre-emergence section of Table B, 0 to 10 scale (0 no effect, 10 complete control)
[27] = Postemergence, Rate 62 g/ha, scale of 0 to 10, 0 is no effect, 10 is complete control

CC(C)N(C(=O)n1oc(=O)n(CC(=O)C(F)(F)F)c1=O)c1ccc(F)cc1F [Compound 598]
0: Plant response rating, Velvetleaf [1, 17] | Velvetleaf plant response rating [1, 18] | Plant response rating, Velvetleaf [1, 19] | Velvetleaf plant response rating [1, 20] | Velvetleaf plant response rating [1, 21] | Plant response rating, Velvetleaf [1, 22] | Plant response rating, Ducksalad (0 to 10 scale, 0 is no effect, 10 is complete control) [2, 23] | Ducksalad plant response rating (0 to 10 scale, 0 is no effect, 10 is complete control) [2, 24] | Ducksalad plant response rating [2, 25] | Ducksalad plant response rating [2, 26] | Nutsedge plant response rating [3, 27] | Plant response rating, Nutsedge [3, 17] | Nutsedge plant response rating [3, 18] | Plant response rating, Nutsedge [3, 19] | Nutsedge plant response rating [3, 20] | Nutsedge plant response rating [3, 21] | Plant response rating, Nutsedge [3, 22] | Bedstraw plant response rating [4, 27] | Plant response rating, Bedstraw [4, 17] | Bedstraw plant response rating [4, 20] | Bedstraw plant response rating [4, 21] | Bedstraw plant response rating (0 to 10 scale) ([4]; Preemergence, Rate 250 g/ha) | Bedstraw plant response rating [4, 22] | Rape plant response rating [5, 27] | Plant response rating, Rape [5, 17] | Rape plant response rating [5, 18] | Plant response rating, Rape [5, 19] | Rape plant response rating [5, 20] | Rape plant response rating [5, 21] | Plant response rating, Rape [5, 22] | Plant response rating, Soybean [6, 17] | Soybean plant response rating [6, 18] | Plant response rating, Soybean [6, 19] | Soybean plant response rating [6, 20] | Soybean plant response rating [6, 21] | Plant response rating, Soybean [6, 22] | Plant response rating, Redroot pigweed [7, 17] | Redroot pigweed plant response rating [7, 18] | Plant response rating, Redroot pigweed [7, 19] | Redroot pigweed plant response rating [7, 20] | Redroot pigweed plant response rating [7, 21] | Plant response rating, Redroot pigweed [7, 22] | Plant response rating, Sugarbeets [8, 17] | Sugarbeets plant response rating [8, 18] | Plant response rating, Sugarbeets [8, 19] | Sugarbeets plant response rating [8, 20] | Sugarbeets plant response rating [8, 21] | Plant response rating, Sugarbeets [8, 22] | Blackgrass plant response rating [9, 27] | Plant response rating, Blackgrass [9, 17] | Blackgrass plant response rating [9, 18] | Plant response rating, Blackgrass [9, 19] | Blackgrass plant response rating [9, 20] | Blackgrass plant response rating [9, 21] | Blackgrass plant response rating (0 to 10 scale) ([9]; Preemergence, Rate 250 g/ha) | Blackgrass plant response rating [9, 22] | Plant response rating, Wild oats [10, 17] | Wild oats plant response rating [10, 18] | Plant response rating, Wild oats [10, 19] | Wild oats plant response rating [10, 20] | Wild oats plant response rating [10, 21] | Plant response rating, Wild oats [10, 22] | Plant response rating, Wheat [11, 17] | Wheat plant response rating [11, 18] | Plant response rating, Wheat [11, 19] | Wheat plant response rating [11, 20] | Wheat plant response rating [11, 21] | Plant response rating, Wheat [11, 22] | Morningglory plant response rating [12, 27] | Plant response rating, Morningglory [12, 17] | Morningglory plant response rating [12, 18] | Plant response rating, Morningglory [12, 19] | Morningglory plant response rating [12, 20] | Morningglory plant response rating [12, 21] | Plant response rating, Morningglory [12, 22] | Plant response rating, Rice (0 to 10 scale, 0 is no effect, 10 is complete control) [13, 23] | Rice plant response rating (0 to 10 scale, 0 is no effect, 10 is complete control) [13, 24] | Rice plant response rating [13, 25] | Rice plant response rating [13, 26] | Giant foxtail plant response rating [14, 27] | Plant response rating, Giant foxtail [14, 17] | Giant foxtail plant response rating [14, 18] | Plant response rating, Giant foxtail [14, 19] | Giant foxtail plant response rating [14, 20] | Giant foxtail plant response rating [14, 21] | Plant response rating, Giant foxtail [14, 22] | Plant response rating, Barnyardgrass (0 to 10 scale, 0 is no effect, 10 is complete control) [15, 23] | Barnyardgrass plant response rating (0 to 10 scale, 0 is no effect, 10 is complete control) [15, 24] | Barnyardgrass plant response rating [15, 25] | Barnyardgrass plant response rating [15, 26] | Plant response rating, S. Flatsedge (0 to 10 scale, 0 is no effect, 10 is complete control) [16, 23] | S. Flatsedge plant response rating (0 to 10 scale, 0 is no effect, 10 is complete control) [16, 24] | S. Flatsedge plant response rating [16, 25] | S. Flatsedge plant response rating [16, 26]
